Test results taken from ChEMBL document CHEMBL4145553, “Design, synthesis, and biological evaluation of novel amide and hydrazide based thioether analogs targeting Histone deacteylase (HDAC) enzymes” (Eur J Med Chem, 2018).
Calls of active or inactive are those of the source. The calls are words filed in the database; no cut-off is given here.

Key:
HOP-62 = assay: Growth inhibition of human HOP62 cells assessed as cell growth at 10^-8 M incubated for 48 hrs by sulforhodamine B assay relative to control; type: functional; settings: HOP-62, 48 h, read-out: Activity
NCI-H322M [1] = assay: Growth inhibition of human NCI-H322M cells assessed as cell growth at 10^-8 M incubated for 48 hrs by sulforhodamine B assay relative to control; type: functional; settings: read-out: Activity
SF-268 [2] = assay: Growth inhibition of human SF268 cells assessed as cell growth at 10^-8 M incubated for 48 hrs by sulforhodamine B assay relative to control; type: functional; settings: SF-268, 48 h, read-out: Activity
Malme-3M = assay: Growth inhibition of human MALME-3M cells assessed as cell growth at 10^-8 M incubated for 48 hrs by sulforhodamine B assay relative to control; type: functional; settings: read-out: Activity
A498 [3] = assay: Growth inhibition of human A498 cells assessed as cell growth at 10^-8 M incubated for 48 hrs by sulforhodamine B assay relative to control; type: functional; settings: A498, 48 h, read-out: Activity
TK-10 = assay: Growth inhibition of human TK10 cells assessed as cell growth at 10^-8 M incubated for 48 hrs by sulforhodamine B assay relative to control; type: functional; settings: TK-10, 48 h, read-out: Activity
DU-145 = assay: Growth inhibition of human DU145 cells assessed as cell growth at 10^-8 M incubated for 48 hrs by sulforhodamine B assay relative to control; type: functional; settings: DU-145, 48 h, read-out: Activity
NCI-H226 [4] = assay: Growth inhibition of human NCI-H226 cells assessed as cell growth at 10^-7 M incubated for 48 hrs by sulforhodamine B assay relative to control; type: functional; settings: NCI-H226, 48 h, read-out: Activity
NCI-H322M [5] = assay: Growth inhibition of human NCI-H322M cells assessed as cell growth at 10^-7 M incubated for 48 hrs by sulforhodamine B assay relative to control; type: functional; settings: read-out: Activity
MDA-MB-231 = assay: Growth inhibition of human MDA-MB-231 cells assessed as cell growth at 10^-7 M incubated for 48 hrs by sulforhodamine B assay relative to control; type: functional; settings: MDA-MB-231, 48 h, read-out: Activity
NCI-H226 [6] = assay: Growth inhibition of human NCI-H226 cells assessed as cell growth at 10^-6 M incubated for 48 hrs by sulforhodamine B assay relative to control; type: functional; settings: NCI-H226, 48 h, read-out: Activity
SF-539 = assay: Growth inhibition of human SF539 cells assessed as cell growth at 10^-6 M incubated for 48 hrs by sulforhodamine B assay relative to control; type: functional; settings: SF-539, 48 h, read-out: Activity
OVCAR-4 = assay: Growth inhibition of human OVCAR4 cells assessed as cell growth at 10^-6 M incubated for 48 hrs by sulforhodamine B assay relative to control; type: functional; settings: OVCAR-4, 48 h, read-out: Activity
NCI/ADR-RES = assay: Growth inhibition of human NCI/ADR-RES cells assessed as cell growth at 10^-6 M incubated for 48 hrs by sulforhodamine B assay relative to control; type: functional; settings: read-out: Activity
786-0 [7] = assay: Growth inhibition of human 786-0 cells assessed as cell growth at 10^-6 M incubated for 48 hrs by sulforhodamine B assay relative to control; type: functional; settings: 786-0, 48 h, read-out: Activity
MCF7 = assay: Growth inhibition of human MCF7 cells assessed as cell growth at 10^-6 M incubated for 48 hrs by sulforhodamine B assay relative to control; type: functional; settings: MCF7, 48 h, read-out: Activity
K562 = assay: Growth inhibition of human K562 cells assessed as cell growth at 10^-5 M incubated for 48 hrs by sulforhodamine B assay relative to control; type: functional; settings: K562, 48 h, read-out: Activity
RPMI-8226 = assay: Growth inhibition of human RPMI8226 cells assessed as cell growth at 10^-5 M incubated for 48 hrs by sulforhodamine B assay relative to control; type: functional; settings: RPMI-8226, 48 h, read-out: Activity
A549 = assay: Growth inhibition of human A549/ATCC cells assessed as cell growth at 10^-5 M incubated for 48 hrs by sulforhodamine B assay relative to control; type: functional; settings: A549, 48 h, read-out: Activity
NCI-H322M [8] = assay: Growth inhibition of human NCI-H322M cells assessed as cell growth at 10^-5 M incubated for 48 hrs by sulforhodamine B assay relative to control; type: functional; settings: read-out: Activity
SF-268 [9] = assay: Growth inhibition of human SF268 cells assessed as cell growth at 10^-5 M incubated for 48 hrs by sulforhodamine B assay relative to control; type: functional; settings: SF-268, 48 h, read-out: Activity
ACHN = assay: Growth inhibition of human ACHN cells assessed as cell growth at 10^-5 M incubated for 48 hrs by sulforhodamine B assay relative to control; type: functional; settings: read-out: Activity
SN12C = assay: Growth inhibition of human SN12C cells assessed as cell growth at 10^-5 M incubated for 48 hrs by sulforhodamine B assay relative to control; type: functional; settings: read-out: Activity
UO-31 = assay: Growth inhibition of human UO31 cells assessed as cell growth at 10^-5 M incubated for 48 hrs by sulforhodamine B assay relative to control; type: functional; settings: UO-31, 48 h, read-out: Activity
T47D = assay: Growth inhibition of human T47D cells assessed as cell growth at 10^-5 M incubated for 48 hrs by sulforhodamine B assay relative to control; type: functional; settings: read-out: Activity
UACC-257 = assay: Growth inhibition of human UACC257 cells assessed as cell growth at 10^-4 M incubated for 48 hrs by sulforhodamine B assay relative to control; type: functional; settings: UACC-257, 48 h, read-out: Activity
786-0 [10] = assay: Growth inhibition of human 786-0 cells assessed as cell growth at 10^-4 M incubated for 48 hrs by sulforhodamine B assay relative to control; type: functional; settings: 786-0, 48 h, read-out: Activity
NCI-H23 = assay: Growth inhibition of human NCI-H23 cells incubated for 48 hrs by sulforhodamine B assay; type: functional; settings: NCI-H23, 48 h
SW-620 = assay: Growth inhibition of human SW620 cells incubated for 48 hrs by sulforhodamine B assay; type: functional; settings: SW-620, 48 h
A498 [11] = assay: Growth inhibition of human A498 cells incubated for 48 hrs by sulforhodamine B assay; type: functional; settings: A498, 48 h
HL-60 [12] = assay: Induction of apoptosis in human HL60 cells assessed as live cells by propidium iodide/Annexin V staining based flow cytometry (reference value: 96.94%); type: functional
HL-60 [13] = assay: Downregulation of HDAC2 mRNA expression in human HL60 cells by qRT-PCR method relative to control; type: functional
HL-60 [14] = assay: Downregulation of HDAC8 mRNA expression in human HL60 cells by qRT-PCR method; type: functional, cell-based
[15] = read-out: LC50 (the source's name)
[16] = read-out: pLC50 (the source's name) (converted)

CCS/C(Nc1ccccc1)=C(\C#N)C(=O)Nc1ccc(OC)cc1
growth at 0.01 µM (HOP-62): 92%
growth at 0.01 µM (NCI-H322M [1]): 95%
growth at 0.01 µM (SF-268 [2]): 101%
growth at 0.01 µM (Malme-3M): 98%
growth at 0.01 µM (A498 [3]): 91%
growth at 0.01 µM (TK-10): 104%
growth at 0.01 µM (DU-145): 101%
growth at 0.1 µM (NCI-H226 [4]): 86%
growth at 0.1 µM (NCI-H322M [5]): 92%
growth at 0.1 µM (MDA-MB-231): 94%
growth at 1 µM (NCI-H226 [6]): 88%
growth at 1 µM (SF-539): 87%
growth at 1 µM (OVCAR-4): 88%
growth at 1 µM (NCI/ADR-RES): 73%
growth at 1 µM (786-0 [7]): 83%
growth at 1 µM (MCF7): 77%
growth at 10 µM (K562): 12%
growth at 10 µM (RPMI-8226): 6%
growth at 10 µM (A549): 35%
growth at 10 µM (NCI-H322M [8]): 38%
growth at 10 µM (SF-268 [9]): 42%
growth at 10 µM (ACHN): 33%
growth at 10 µM (SN12C): 37%
growth at 10 µM (UO-31): 37%
growth at 10 µM (T47D): 25%
growth at 100 µM (UACC-257): 37%
growth at 100 µM (786-0 [10]): 6%
GI50 (NCI-H23; read-out: GI50): 4.9 µM
LC50 (NCI-H23; read-out: LC50): > 100 µM
TGI (NCI-H23; read-out: TGI): > 100 µM
GI50 (NCI-H23; read-out: pGI50 (converted)): 4.9 µM
LC50 (NCI-H23; read-out: pLC50 (converted)): > 100 µM
TGI (NCI-H23; read-out: pTGI): > 100 µM
GI50 (SW-620; read-out: GI50): 2.55 µM
CC50 (SW-620; [15]): > 100 µM
TGI (SW-620; read-out: TGI): > 100 µM
GI50 (SW-620; read-out: pGI50 (converted)): 2.57 µM
CC50 (SW-620; [16]): > 100 µM
TGI (SW-620; read-out: pTGI): > 100 µM
GI50 (A498 [11]; read-out: GI50): 2.54 µM
CC50 (A498 [11]; [15]): > 100 µM
TGI (A498 [11]; read-out: TGI): 26.6 µM
GI50 (A498 [11]; read-out: pGI50 (converted)): 2.57 µM
CC50 (A498 [11]; [16]): > 100 µM
TGI (A498 [11]; read-out: pTGI (converted)): 26.9 µM
Activity (HL-60 [12]): 84%
fold change (FC) (HL-60 [13]): <=10
Activity (HL-60 [14]): Active

CCS/C(Nc1ccccc1)=C(\C#N)C(=O)N/N=C\c1ccc(Cl)cc1Cl
growth at 0.01 µM (HOP-62): 93%
growth at 0.01 µM (NCI-H322M [1]): 94%
growth at 0.01 µM (SF-268 [2]): 94%
growth at 0.01 µM (Malme-3M): 103%
growth at 0.01 µM (A498 [3]): 91%
growth at 0.01 µM (TK-10): 93%
growth at 0.01 µM (DU-145): 105%
growth at 0.1 µM (NCI-H226 [4]): 82%
growth at 0.1 µM (NCI-H322M [5]): 91%
growth at 0.1 µM (MDA-MB-231): 97%
growth at 1 µM (NCI-H226 [6]): 85%
growth at 1 µM (SF-539): 90%
growth at 1 µM (OVCAR-4): 86%
growth at 1 µM (NCI/ADR-RES): 87%
growth at 1 µM (786-0 [7]): 83%
growth at 1 µM (MCF7): 83%
growth at 10 µM (K562): 10%
growth at 10 µM (RPMI-8226): 18%
growth at 10 µM (A549): 29%
growth at 10 µM (NCI-H322M [8]): 42%
growth at 10 µM (SF-268 [9]): 42%
growth at 10 µM (ACHN): 43%
growth at 10 µM (SN12C): 41%
growth at 10 µM (UO-31): 43%
growth at 10 µM (T47D): 24%
growth at 100 µM (UACC-257): 35%
growth at 100 µM (786-0 [10]): 7%
GI50 (NCI-H23; read-out: GI50): 6.47 µM
LC50 (NCI-H23; read-out: LC50): > 100 µM
TGI (NCI-H23; read-out: TGI): > 100 µM
GI50 (NCI-H23; read-out: pGI50 (converted)): 6.46 µM
LC50 (NCI-H23; read-out: pLC50 (converted)): > 100 µM
TGI (NCI-H23; read-out: pTGI): > 100 µM
GI50 (SW-620; read-out: GI50): 4.65 µM
CC50 (SW-620; [15]): > 100 µM
TGI (SW-620; read-out: TGI): > 100 µM
GI50 (SW-620; read-out: pGI50 (converted)): 4.68 µM
CC50 (SW-620; [16]): > 100 µM
TGI (SW-620; read-out: pTGI): > 100 µM
GI50 (A498 [11]; read-out: GI50): 1.87 µM
CC50 (A498 [11]; [15]): > 100 µM
TGI (A498 [11]; read-out: TGI): 37.8 µM
GI50 (A498 [11]; read-out: pGI50 (converted)): 1.86 µM
CC50 (A498 [11]; [16]): > 100 µM
TGI (A498 [11]; read-out: pTGI (converted)): 38 µM
Activity (HL-60 [12]): 79.88%
fold change (FC) (HL-60 [13]): <=10
Activity (HL-60 [14]): Active
